Assay results taken from ChEMBL document CHEMBL1177732, “Triterpene saponins from Clematis chinensis and their potential anti-inflammatory activity” (J Nat Prod, 2010).

Experiments:
[1] = target: T1, Prostaglandin G/H synthase 2 (Homo sapiens, UniProt P35354); assay: Inhibition of COX2 by microplate reader
T1 sequence (P35354 whole entry): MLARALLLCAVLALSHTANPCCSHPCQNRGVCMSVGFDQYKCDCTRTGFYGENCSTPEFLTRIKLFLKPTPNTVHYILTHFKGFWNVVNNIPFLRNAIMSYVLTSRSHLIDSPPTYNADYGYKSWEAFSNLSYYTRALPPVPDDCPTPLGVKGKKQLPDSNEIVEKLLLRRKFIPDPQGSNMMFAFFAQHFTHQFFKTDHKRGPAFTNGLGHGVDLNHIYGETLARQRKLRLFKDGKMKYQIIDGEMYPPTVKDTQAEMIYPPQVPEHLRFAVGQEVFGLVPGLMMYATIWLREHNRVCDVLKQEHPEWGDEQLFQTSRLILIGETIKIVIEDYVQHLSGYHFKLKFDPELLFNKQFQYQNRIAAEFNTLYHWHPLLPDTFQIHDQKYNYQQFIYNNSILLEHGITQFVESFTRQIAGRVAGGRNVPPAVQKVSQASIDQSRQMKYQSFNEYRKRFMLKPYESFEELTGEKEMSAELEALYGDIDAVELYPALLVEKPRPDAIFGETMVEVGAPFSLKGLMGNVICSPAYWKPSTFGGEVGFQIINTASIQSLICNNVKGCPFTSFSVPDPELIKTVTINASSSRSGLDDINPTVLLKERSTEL

[2] = target: Prostaglandin G/H synthase 1 (Homo sapiens, UniProt P23219); assay: Inhibition of COX1 by microplate reader
Prostaglandin G/H synthase 1, sequence (P23219 whole entry): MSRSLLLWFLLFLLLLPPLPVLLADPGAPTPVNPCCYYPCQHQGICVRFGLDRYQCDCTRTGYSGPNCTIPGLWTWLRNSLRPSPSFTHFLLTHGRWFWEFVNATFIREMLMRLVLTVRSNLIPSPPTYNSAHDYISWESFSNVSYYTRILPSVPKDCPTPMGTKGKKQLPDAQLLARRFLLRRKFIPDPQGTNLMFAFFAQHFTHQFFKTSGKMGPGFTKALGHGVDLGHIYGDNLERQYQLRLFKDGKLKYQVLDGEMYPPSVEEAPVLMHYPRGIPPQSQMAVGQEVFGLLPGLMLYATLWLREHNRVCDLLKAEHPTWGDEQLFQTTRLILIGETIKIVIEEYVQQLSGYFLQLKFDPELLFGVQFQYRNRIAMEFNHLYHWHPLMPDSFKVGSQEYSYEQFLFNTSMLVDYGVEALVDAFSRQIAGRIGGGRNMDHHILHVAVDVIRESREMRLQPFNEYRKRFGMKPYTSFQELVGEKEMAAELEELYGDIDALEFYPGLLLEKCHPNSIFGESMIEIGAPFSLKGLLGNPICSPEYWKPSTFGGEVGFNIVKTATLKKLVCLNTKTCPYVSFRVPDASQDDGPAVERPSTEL

Row | Structure (SMILES) | IC50 [1] [µM] | IC50 [2] [µM]
1 | C[C@@H]1O[C@@H](O[C@H]2[C@H](O)[C@@H](O)[C@H](OC[C@H]3O[C@@H](OC(=O)[C@]45CCC(C)(C)C[C@H]4C4=CC[C@@H]6[C@@]7(C)CC[C@H](O[C@@H]8OC[C@H](O)[C@H](O)[C@H]8O[C@@H]8O[C@@H](C)[C@H](O)[C@@H](O[C@@H]9OC[C@@H](O[C@@H]%10O[C@H](CO)[C@@H](O[C@@H]%11O[C@H](CO)[C@@H](O)[C@H](O)[C@H]%11O)[C@H](O)[C@H]%10O)[C@@H](O)[C@H]9O)[C@H]8O)[C@@](C)(CO)[C@@H]7CC[C@@]6(C)[C@]4(C)CC5)[C@H](O)[C@@H](O)[C@@H]3O)O[C@@H]2CO)[C@H](O)[C@H](O)[C@H]1O | > 50 | > 50
2 | C[C@@H]1O[C@@H](O[C@H]2[C@H](O)[C@@H](O)[C@H](OC[C@H]3O[C@@H](OC(=O)[C@]45CCC(C)(C)C[C@H]4C4=CC[C@@H]6[C@@]7(C)CC[C@H](O[C@@H]8OC[C@H](O)[C@H](O)[C@H]8O)[C@@](C)(CO)[C@@H]7CC[C@@]6(C)[C@]4(C)CC5)[C@H](O)[C@@H](O)[C@@H]3O)O[C@@H]2CO)[C@H](O)[C@H](O)[C@H]1O [CAULOSIDE D] | > 50 | > 50
3 | COc1ccc(/C=C/C(=O)O[C@H]2[C@H](O[C@H]3[C@H](O)[C@@H](O)[C@H](O[C@@H]4CO[C@@H](O[C@@H]5[C@@H](O)[C@H](C)O[C@@H](O[C@H]6[C@H](O[C@H]7CC[C@]8(C)[C@H]9CC=C%10[C@@H]%11CC(C)(C)CC[C@]%11(C(=O)O[C@@H]%11O[C@H](CO[C@@H]%12O[C@H](CO)[C@@H](O[C@@H]%13O[C@@H](C)[C@H](O)[C@@H](O)[C@H]%13O)[C@H](O)[C@H]%12O)[C@@H](O)[C@H](O)[C@H]%11O)CC[C@@]%10(C)[C@]9(C)CC[C@H]8C7(C)C)OC[C@H](O)[C@@H]6O)[C@@H]5O)[C@H](O)[C@@H]4O)O[C@@H]3CO)O[C@H](CO)[C@@H](O)[C@@H]2O)cc1O [CLEMATERNOSIDE C] | 8.8 | 7.6
4 | COc1ccc(/C=C/C(=O)O[C@H]2[C@H](O[C@H]3[C@H](O)[C@@H](O)[C@H](O[C@@H]4CO[C@@H](O[C@@H]5[C@@H](O)[C@H](C)O[C@@H](O[C@H]6[C@H](O[C@H]7CC[C@]8(C)[C@H]9CC=C%10[C@@H]%11CC(C)(C)CC[C@]%11(C(=O)O[C@@H]%11O[C@H](CO[C@@H]%12O[C@H](CO)[C@@H](O[C@@H]%13O[C@@H](C)[C@H](O)[C@@H](O)[C@H]%13O)[C@H](O)[C@H]%12O)[C@@H](O)[C@H](O)[C@H]%11O)CC[C@@]%10(C)[C@]9(C)CC[C@H]8C7(C)C)OC[C@H](O)[C@@H]6O)[C@@H]5O)[C@H](O)[C@@H]4O)O[C@@H]3CO)O[C@H](CO)[C@@H](O)[C@@H]2O[C@@H]2O[C@H](CO[C@@H]3O[C@@H](C)[C@H](O)[C@@H](O)[C@H]3O[C@@H]3O[C@H](CO)[C@@H](O)[C@H](O)[C@H]3O)[C@@H](O)[C@H](O)[C@H]2O)cc1O [CLEMATERNOSIDE K] | 6.7 | 5.9
5 | C[C@@H]1O[C@@H](O[C@H]2[C@H](O)[C@@H](O)[C@H](OC[C@H]3O[C@@H](OC(=O)[C@]45CCC(C)(C)C[C@H]4C4=CC[C@@H]6[C@@]7(C)CC[C@H](O[C@@H]8OC[C@H](O)[C@H](O)[C@H]8O[C@@H]8O[C@@H](C)[C@H](O)[C@@H](O[C@@H]9OC[C@@H](O[C@@H]%10O[C@H](CO)[C@@H](O)[C@H](O)[C@H]%10O)[C@@H](O)[C@H]9O)[C@H]8O)[C@@](C)(CO)[C@@H]7CC[C@@]6(C)[C@]4(C)CC5)[C@H](O)[C@@H](O)[C@@H]3O)O[C@@H]2CO)[C@H](O)[C@H](O)[C@H]1O [CLEMATICHINENOSIDE B] | > 50 | > 50

Second part, the molecule after the results:

Row | IC50 [1] [µM] | IC50 [2] [µM] | Structure (SMILES)
6 | > 50 | > 50 | C[C@@H]1O[C@@H](O[C@H]2[C@H](O)[C@@H](O)[C@H](OC[C@H]3O[C@@H](OC(=O)[C@]45CCC(C)(C)C[C@H]4C4=CC[C@@H]6[C@@]7(C)CC[C@H](O)C(C)(C)[C@@H]7CC[C@@]6(C)[C@]4(C)CC5)[C@H](O)[C@@H](O)[C@@H]3O)O[C@@H]2CO)[C@H](O)[C@H](O)[C@H]1O [CIRENSENOSIDE O]
7 | > 50 | > 50 | C[C@@H]1O[C@@H](O[C@H]2[C@H](O)[C@@H](O)[C@H](OC[C@H]3O[C@@H](OC(=O)[C@]45CCC(C)(C)C[C@H]4C4=CC[C@@H]6[C@@]7(C)CC[C@H](O[C@@H]8OC[C@H](O)[C@H](O)[C@H]8O)C(C)(C)[C@@H]7CC[C@@]6(C)[C@]4(C)CC5)[C@H](O)[C@@H](O)[C@@H]3O)O[C@@H]2CO)[C@H](O)[C@H](O)[C@H]1O [CIWUJIANOSIDE C3]
8 | 7.6 | 8 | COc1ccc(/C=C/C(=O)O[C@@H]2[C@@H](O)[C@H](O[C@H]3[C@H](O)[C@@H](O)[C@H](O[C@@H]4CO[C@@H](O[C@@H]5[C@@H](O)[C@H](C)O[C@@H](O[C@H]6[C@H](O[C@H]7CC[C@]8(C)[C@H]9CC=C%10[C@@H]%11CC(C)(C)CC[C@]%11(C(=O)O[C@@H]%11O[C@H](CO[C@@H]%12O[C@H](CO)[C@@H](O[C@@H]%13O[C@@H](C)[C@H](O)[C@@H](O)[C@H]%13O)[C@H](O)[C@H]%12O)[C@@H](O)[C@H](O)[C@H]%11O)CC[C@@]%10(C)[C@]9(C)CC[C@H]8C7(C)C)OC[C@H](O)[C@@H]6O)[C@@H]5O)[C@H](O)[C@@H]4O)O[C@@H]3CO)O[C@H](CO)[C@H]2O)cc1O [CLEMATERNOSIDE B]
9 | 9 | 8.8 | COc1ccc(/C=C/C(=O)O[C@H]2[C@H](O[C@H]3[C@H](O)[C@@H](O)[C@H](O[C@@H]4CO[C@@H](O[C@@H]5[C@@H](O)[C@H](C)O[C@@H](O[C@H]6[C@H](O[C@H]7CC[C@@]8(C)[C@@H](CC[C@]9(C)[C@@H]8CC=C8[C@@H]%10CC(C)(C)CC[C@]%10(C(=O)O[C@@H]%10O[C@H](CO[C@@H]%11O[C@H](CO)[C@@H](O[C@@H]%12O[C@@H](C)[C@H](O)[C@@H](O)[C@H]%12O)[C@H](O)[C@H]%11O)[C@@H](O)[C@H](O)[C@H]%10O)CC[C@]89C)[C@]7(C)CO)OC[C@H](O)[C@@H]6O)[C@@H]5O)[C@H](O)[C@@H]4O)O[C@@H]3CO)O[C@H](CO)[C@@H](O)[C@@H]2O[C@@H]2O[C@H](CO[C@@H]3O[C@@H](C)[C@H](O)[C@@H](O)[C@H]3O)[C@@H](O)[C@H](O)[C@H]2O)cc1O [CLEMATERNOSIDE D]
10 | 8.5 | 8.3 | COc1ccc(/C=C/C(=O)O[C@H]2[C@H](O[C@H]3[C@H](O)[C@@H](O)[C@H](O[C@@H]4CO[C@@H](O[C@@H]5[C@@H](O)[C@H](C)O[C@@H](O[C@H]6[C@H](O[C@H]7CC[C@]8(C)[C@H]9CC=C%10[C@@H]%11CC(C)(C)CC[C@]%11(C(=O)O[C@@H]%11O[C@H](CO[C@@H]%12O[C@H](CO)[C@@H](O[C@@H]%13O[C@@H](C)[C@H](O)[C@@H](O)[C@H]%13O)[C@H](O)[C@H]%12O)[C@@H](O)[C@H](O)[C@H]%11O)CC[C@@]%10(C)[C@]9(C)CC[C@H]8C7(C)C)OC[C@H](O)[C@@H]6O)[C@@H]5O)[C@H](O)[C@@H]4O)O[C@@H]3CO)O[C@H](CO)[C@@H](O)[C@@H]2O[C@@H]2O[C@H](CO[C@@H]3O[C@@H](C)[C@H](O)[C@@H](O)[C@H]3O)[C@@H](O)[C@H](O)[C@H]2O)cc1O [CLEMATERNOSIDE E]
